Molecules are shown by their SMILES.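 Five compound concentrations were applied to cells in 96-well plates for 48 hours; endpoints were derived by simple linear interpolation of the resulting dose-response curve. Definition used: TGI = concentration required for complete inhibition of growth.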

This passage reports TGI results from PubChem BioAssay (NCI).

Among the test systems are DMS 273 small cell lung; EKVX NSCLC; HCT-116 colon; HCT-15 colon; HL-60(TB) leukemia; HOP-92 NSCLC; IGROV1 ovarian; NCI-H522 lung; OVCAR-8 ovarian; SNB-19 CNS; UO-31 renal; MCF7 breast.
Common to all, as to test: NCI tumour cell line growth inhibition, 48 h

Regarding `O=c1sc2ccccc2n1CC1CS1` (configuration not stated), the TGI in the assay with DMS 273 small cell lung, with EKVX NSCLC, in the assay on HCT-116 colon, in the assay on HCT-15 colon, in the assay on HL-60(TB) leukemia and in the assay with HOP-92 NSCLC was above 100 µM in each case. In addition, the TGI in the assay on IGROV1 ovarian, with NCI-H522 lung, with OVCAR-8 ovarian, in the assay on SNB-19 CNS and with UO-31 renal was above 100 µM each time.

In the case of `O=C1c2cccc3c2C(=O)c2c(cccc21)OCCOCCOCCOCCO3`, the TGI with DMS 273 small cell lung, with EKVX NSCLC, in the assay with HCT-116 colon, in the assay on HCT-15 colon, with HL-60(TB) leukemia and with IGROV1 ovarian was above 100 µM in each case. In addition, the TGI in the assay on NCI-H522 lung was above 100 µM; with OVCAR-8 ovarian, above 100 µM; in the assay on SNB-19 CNS, above 100 µM; in the assay with UO-31 renal it was 99.8 µM.

In the case of `CC(C)Cc1ccc(C(C)C(=O)N2CCN(/C=C/c3ccccc3)CC2)cc1` (configuration not stated), the TGI with DMS 273 small cell lung turned out to be 24.2 µM; in the assay with EKVX NSCLC, 35 µM; in the assay on HCT-116 colon it was 26.3 µM; in the assay on HCT-15 colon, 27.5 µM; with HL-60(TB) leukemia it was 18.7 µM; with HOP-92 NSCLC, 26.1 µM. Moreover, the TGI is 28.7 µM in the assay on IGROV1 ovarian; 33.7 µM with MCF7 breast; 25 µM in the assay on NCI-H522 lung; 29.1 µM with OVCAR-8 ovarian; 22 µM with SNB-19 CNS; 24 µM with UO-31 renal.

Consider `COc1ccc(/C=C2\CCNC2=O)cc1`, for which the TGI in the assay with DMS 273 small cell lung is above 100 µM; in the assay with EKVX NSCLC, above 80.9 µM; with HCT-116 colon, above 100 µM; in the assay on HCT-15 colon it was above 100 µM; with HL-60(TB) leukemia it was above 100 µM; in the assay with HOP-92 NSCLC, above 100 µM. The TGI in the assay with IGROV1 ovarian, with MCF7 breast, in the assay on NCI-H522 lung, with OVCAR-8 ovarian, with SNB-19 CNS and with UO-31 renal was above 100 µM in each case.

Turning to `CCCC(=O)OCC1OC(n2ccc(N)nc2=O)C(OC(=O)CCC)C1OC(=O)CCC` (configuration not stated), the TGI in the assay on DMS 273 small cell lung is above 100 µM; with EKVX NSCLC it was 16.8 µM; with HCT-116 colon it was above 100 µM; in the assay on HCT-15 colon it was above 100 µM; in the assay on HL-60(TB) leukemia, 25.1 µM; with HOP-92 NSCLC it was above 100 µM. In addition, the TGI in the assay on IGROV1 ovarian, in the assay on MCF7 breast, in the assay on NCI-H522 lung, in the assay on OVCAR-8 ovarian, in the assay on SNB-19 CNS and in the assay on UO-31 renal was above 100 µM throughout.

Consider `C=CCc1c(O)c2c(c3oc(=O)cc(C)c13)CC(C)O2` (configuration not stated), for which the TGI with DMS 273 small cell lung, in the assay with EKVX NSCLC, in the assay on HCT-116 colon, with HCT-15 colon, in the assay with HL-60(TB) leukemia and in the assay with IGROV1 ovarian was above 100 µM throughout. Further, the TGI with NCI-H522 lung, in the assay with OVCAR-8 ovarian, with SNB-19 CNS and in the assay with UO-31 renal was above 100 µM each time.
